Experimental data from patent US8071584B2 (GlaxoSmithKline LLC, priority 2007, dated 2011).

Each molecule was assayed on human monocyte stimulated cytokine production (TNF-α) (assay: Monocyte assay (LPS-stimulated TNF-α production)). Settings: human CD14+ monocytes, 200 ng/mL LPS, 24 hrs, values given as 'about', read-out: pIC50 in the monocyte assay (converted).
Assay type: cell-based
Protocol: Effect of IKK-β inhibition on human monocyte stimulated cytokine production was assessed as follows: Monocytes were isolated from heparinized whole blood by Ficoll gradient, followed by purification of CD14+ cells using MACS magnetic cell separation beads. Isolated monocytes were then adhered to 96-well culture plates at 1×10^6 cells/mL in RPMI 1640 10% FBS (JRH Biosciences, Lenexa Kans.) for 2 h. Test compounds are added to the wells 30 minutes prior to stimulation with a final vehicle concentration of 0.1% DMSO. Monocytes were activated by the addition of 200 ng/mL endotoxin (LPS; E. coli serotype 026:B6) (Sigma, St. Louis, Mo.) and incubated for 24 hrs at 37 C. Cell-free supernates were analyzed by Alphascreen™ (Perkin Elmer, Waltham, Mass.) for TNF-α using R&D Systems matched pair Abs. Viability of the cells was determined by 10% trypan blue exclusion.

IC50 [nM]	SMILES
5.01 to 1000	CC1(C)CC(c2c[nH]c3c(C(N)=O)cc(-c4csc(CN5CCC5)c4)cc23)CCS1(=O)=O (centres unmarked) [Example 234, 5-[5-(1-Azetidinylmethyl)-3-thienyl]-3-(2,2-dimethyl-1,1-dioxidotetrahydro-2H-thiopyran-4-yl)-1H-indole-7-carboxamide]
5.01 to 1000	CC1(C)CC(c2c[nH]c3c(C(N)=O)cc(-c4ccc(CN5CCCC5)s4)cc23)CCS1(=O)=O (centres unmarked) [Example 235, 3-(2,2-Dimethyl-1,1-dioxidotetrahydro-2H-thiopyran-4-yl)-5-[5-(1-pyrrolidinylmethyl)-2-thienyl]-1H-indole-7-carboxamide]
5.01 to 1000	CC1(C)CC(c2c[nH]c3c(C(N)=O)cc(-c4ccc(S(=O)(=O)N5CCCC5)s4)cc23)CCS1(=O)=O (centres unmarked) [Example 239, 3-(2,2-Dimethyl-1,1-dioxidotetrahydro-2H-thiopyran-4-yl)-5-[5-(1-pyrrolidinylsulfonyl)-2-thienyl]-1H-indole-7-carboxamide]
5.01 to 1000	CC1(C)CC(c2c[nH]c3c(C(N)=O)cc(-c4ccc(S(=O)(=O)C5CCCC5)s4)cc23)CCS1(=O)=O (centres unmarked) [Example 240, 5-[5-(Cyclopentylsulfonyl)-2-thienyl]-3-(2,2-dimethyl-1,1-dioxidotetrahydro-2H-thiopyran-4-yl)-1H-indole-7-carboxamide]
5.01 to 1000	NC(=O)c1cc(-c2ccsc2)cc2c([C@@H]3CCS(=O)(=O)[C@H](c4ccccc4)C3)c[nH]c12 [Example 247, 3-[(2S,4R)1,1-dioxido-2-phenyltetrahydro-2H-thiopyran-4-yl]-5-(3-thienyl)-1H-indole-7-carboxamide]
> 1000	NC(=O)c1cc(-c2ccsc2)cc2c([C@H]3CCS(=O)(=O)[C@@H](c4ccccc4)C3)c[nH]c12 [Example 248, 3-[(2R,4S)1,1-dioxido-2-phenyltetrahydro-2H-thiopyran-4-yl]-5-(3-thienyl)-1H-indole-7-carboxamide]
5.01 to 1000	NC(=O)c1cc(-c2ccoc2)cc2c(CC3CCS(=O)(=O)CC3)c[nH]c12 [Example 253, 3-[(1,1-dioxidotetrahydro-2H-thiopyran-4-yl)methyl]-5-(3-furanyl)-1H-indole-7-carboxamide]
5.01 to 1000	NC(=O)c1cc(-c2csc(CN3CCCCCC3)c2)cc2c(CC3CCS(=O)(=O)CC3)c[nH]c12 [Example 258, 3-[(1,1-dioxidotetrahydro-2H-thiopyran-4-yl)methyl]-5-[5-(hexahydro-1H-azepin-1-ylmethyl)-3-thienyl]-1H-indole-7-carboxamide]
5.01 to 1000	NC(=O)c1cc(-c2ccccc2)cc2c(CC3CCS(=O)(=O)C3)c[nH]c12 (centres unmarked) [Example 259, 3-[(1,1-Dioxidotetrahydro-3-thienyl)methyl]-5-phenyl-1H-indole-7-carboxamide]
5.01 to 1000	NC(=O)c1cc(-c2ccsc2)cc2c(CC3CCS(=O)(=O)C3)c[nH]c12 (centres unmarked) [Example 260, 3-[(1,1-Dioxidotetrahydro-3-thienyl)methyl]-5-(3-thienyl)-1H-indole-7-carboxamide]
5.01 to 1000	CN(C)Cc1cc(-c2cc(C(N)=O)c3[nH]cc(CC4CCS(=O)(=O)C4)c3c2)cs1 (centres unmarked) [Example 261, 5-{5-[(Dimethylamino)methyl]-3-thienyl}-3-[(1,1-dioxidotetrahydro-3-thienyl)methyl]-1H-indole-7-carboxamide]
